# Tests used:
# Type in all cases: cell-based, human
# STAT3 = assay: Western blot STAT3; settings: DS−1 2.5, 5.0, and 7.5 µM, 24 h
# Description: Sample preparation: U−2 OS cells seeded in 10 cm Petri dishes were collected and washed with ice-cold PBS and RIPA lysis buffer with PMAF; phosphatase inhibitor was added, and the tubes were placed on ice for 30 min and vortexed for 30 s at intervals of 10 min. The samples were centrifuged at 12,000 g at 4 °C for 15 min, and the supernatants were collected in new centrifuge tubes. The protein samples were placed on ice, and the concentration of each protein sample was measured by the BCA kit (Thermo). The protein concentration was adjusted to the same by milli Q ultrapure water.
# Loading and running the gel: Equal amounts of protein were loaded into the wells of the 10% SDS-PAGE gel, along with molecular weight markers, and 15 μg of total protein from the cell lysate was loaded. We then ran the gel for 45 min at 200 V.
# Transferring the protein: We prepared the transfer stack as follows: negative plate, sponge, filter paper, gel, PVDF membrane, filter paper, sponge, and positive plate. The transfer was for 90 min at 200 mA.
# Antibody staining: We blocked the membrane for 1 h at room temperature using 5% blocking solution, then incubated the membrane with appropriate dilutions of the primary antibody in the blocking solution overnight at 4 °C. […] Images were acquired using darkroom development techniques for chemiluminescence and analyzed by Image J.
# U−2 OS cells [1] = assay: Scratch motility (wound-healing) assay
# Description: U-2 OS cells were seeded in 6-well plates at a density of 200,000 per well and cultured to 90% abundance after 18 h. The cells were scratched with a 10 μL pipette tip along the ruler; each well was scratched 3 times in parallel, and the line was drawn perpendicular to the scratch on the back for fixed-point photography. We suctioned the previous medium and washed the cells with a PBS reagent. Then, we added 2% FBS medium with DS−1 and cultured the cells at 37 °C for different times. After 0, 24, and 48 h, the plate was taken out, and the scratches were observed and photographed by the inverted microscope, while the distance of scratches at different times was measured.
# Cell mobility = (pre-migration distance – post-migration distance)/pre-migration distance × 100%. The cell migration rate of blank control was set as 100%, and the relative cell migration rate = cell migration rate/cell migration rate of control group × 100%
# U−2 OS cells [2] = assay: RNA-seq differential gene expression; settings: DS−1 6.25 µM, 24 h
# Description: Sample preparation: U−2 OS cells were seeded in a 10 cm culture dish, and we cultured them to the logarithmic growth phase, suctioned the previous medium, and added new medium with DS−1 at 0 and 6.25 μM; each group was repeated two times. After 24 h of culture, the dish was washed with PBS reagent 3 times. One milliliter of TRIzol reagent was added to every dish for cell lysate and then collected in centrifuge tubes.
# Transcriptome sequencing and analysis were carried out by Novogene Bioinformatics Technology Co., Ltd. (Beijing, China).
# Raw data in the fastq format were firstly processed through in-house Perl scripts. In this step, clean data were obtained by removing reads containing adapter or containing ploy-N and low-quality reads from raw data. […]
# Reference genome and gene model annotation files were downloaded from the genome website directly. The index of the reference genome was built using Hisat2 v2.0.5 (https://github.com/DaehwanKimLab/hisat2, accessed on 4 May 2022), and paired-end clean reads were aligned to the reference genome using Hisat2 v2.0.5. FeatureCounts v1.5.0-p3 (https://github.com/byee4/featureCounts, accessed on 4 May 2022) was used to count the reads numbers mapped to each gene. Then the Fragments PerKilobase of transcript sequence per Millions […] (FPKMs) of each gene were calculated based on the length of the gene and reads’ count mapped to this gene. […]
# HeLa cells = assay: Cell adhesion against trypsin digestion, HeLa cells; settings: DS-1 10.0, 15.0, 20.0 μM for 24 h
# Description: Dihydrotanshinone I enhances cell adhesion and inhibits cell migration in osteosarcoma U-2 OS cell through CD44
# Lanyan Fan1, 2, Chen Peng2, Xiaoping Zhu1, 2, Yawen Liang2, Ti anyi Xu2, Peng Xu1 and Shihua Wu1, 2* 1 Joint Research Centre for Engineering Biology, Zhejiang University-University of Edinburgh Institute, Zhejiang University, Haining 314400, China
# 2 Research Center of Siyuan Natural Pharmacy and Biotoxicology, College of Life Sciences, Zhejiang University, Hangzhou, Zhejiang Province 310058, China
# * Correspondence: Drwushihua@zju.edu.cn, Shihuawu@intl.zju.edu.cn; Tel.: +86-13968131541 Legends for Supplementary figures
# Figure S1. The chemical structures of major tanshinones isolated from Salvia miltiorrhiza rhizome.
# Figure S2. The effects of DS-1 on HeLa cell adhesion on cell culture plates against trypsin digestion. (A) Hela cells were seeded at 80000 per well in 6-well plates for 12 h, then treated with 0, 10.0, 15.0, 20.0 μM DS-1 for 24 h.
# After that, cells were washed by PBS solution and digested by 400 μL 0.25% trypsin. During the digestion, cellular morphology was recorded by inverted microscope with camera every 30 seconds. The digestion time […]
# Figure S3. […]
# cellular morphology was recorded by inverted microscope every 30 seconds. […]
# Figure S4. […] The relative expression of CD44 was detected by Western Blot and […]
structure (smiles),measurement,setting,value
"Cc1cccc2c3c(ccc12)C1=C(C(=O)C3=O)[C@@H](C)CO1 [DS−1, 15,16-Dihydrotanshinone I]",total protein content of STAT3,STAT3,did not change significantly
same,relative mobility compared to control cells,"U−2 OS cells [1]; DS−1 2.5 µM, 24 h",24.8 ± 9.9%
same,relative mobility compared to control cells,"U−2 OS cells [1]; DS−1 2.5 μM, 48 h",18.1 ± 6.6%
same,relative mobility compared to control cells,"U−2 OS cells [1]; DS−1 5.0 µM, 24 h",17.5 ± 6.6%
same,relative mobility compared to control cells,"U−2 OS cells [1]; DS−1 5.0 μM, 48 h",7.3 ± 7.1%
same,relative mobility compared to control cells,"U−2 OS cells [1]; DS−1 7.5 µM, 24 h",6.6 ± 0.8%
same,relative mobility compared to control cells,"U−2 OS cells [1]; DS−1 7.5 μM, 48 h",4.3 ± 1.8%
same,"number of genes downregulated (of 23,517 detected)",U−2 OS cells [2],4643 genes
same,"number of genes upregulated (of 23,517 detected)",U−2 OS cells [2],4104 genes
same,cell adhesion against trypsin digestion on cell culture plates,HeLa cells,not significant

# Source: article PMC9231138, “Dihydrotanshinone I Enhances Cell Adhesion and Inhibits Cell Migration in Osteosarcoma U−2 OS Cells through CD44 and Chemokine Signaling” (Molecules, 2022)
